Values after ≈ are worked out from the molar mass of the structure shown. Where two headings read alike, the source gives them in different places. Positions of bridges follow the written chain, without caps; N, C: chain ends. Non-standard residues stand in square brackets, D forms with d. Residues, ends and D or L forms follow the SMILES beside them. *: point of attachment. Benzoyl(3,5-Cl2) = O=C(c1cc(Cl)cc(Cl)c1)*; Phenylacetyl(3-Cl) = O=C(Cc1cccc(Cl)c1)*; Phenylacetyl(4-Cl) = O=C(Cc1ccc(Cl)cc1)*; X17 = Cc1cc(C(=O)*)cc(C(F)(F)F)c1; X15 = O=C(c1ccc(Cl)c(F)c1)*; Dab = NCC[C@H](N)C(=O)O; Abu = CC[C@H](N)C(=O)O; Dap = NC[C@H](N)C(=O)O; PhAc = O=C(Cc1ccccc1)*
Tests used:
Pseudomonas aeruginosa = system: Pseudomonas aeruginosa
Outline: (§1)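 Read-out is the MIC, obtained by broth microdilution under CLSI guidance. Lipopeptides (TFA salt form) were diluted in cation-adjusted Mueller-Hinton broth, with polymyxin B sulphate run alongside as control.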

Enterobacter cloacae = system: Enterobacter cloacae
Outline: as §1

Acinetobacter baumannii = system: Acinetobacter baumannii
Outline: as §1

Klebsiella pneumoniae = system: Klebsiella pneumoniae
Outline: as §1

P. aeruginosa ATCC 27853 = experiment: In vivo efficacy in mouse blood infection model (neutropenic Swiss mice); conditions: compound, free base 4 mg/kg intravenously 2 h after inoculation, blood at 4 h
Procedure: P. aeruginosa ATCC 27853, A. baumannii ATCC 19606 and K. pneumoniae FADDI-KP032 were subcultured on nutrient agar plates. One colony of each bacterial strain was dispersed in 10-mL CAMHB and incubated overnight. On day 2, an aliquot (0.2 mL) of each overnight culture suspension was dispersed in 20-mL CAMHB and incubated for 1.5-2.5 h for production of early log-phase growth bacterial culture. The bacteria in the early log-phase growth suspension were concentrated by centrifugation (3,220 g for 10 min) and re-suspended in sterile 0.9% saline for inoculation into mice. The bacterial cell concentration (colony forming unit [CFU]/mL) in saline was estimated by determining the optical density (OD) of the suspension at 600 nm, and confirmed by plating the suspension on nutrient agar plates. Swiss mice (22 to 28 g) were rendered neutropenic by injecting two doses of cyclophosphamide intraperitoneally, −4 day (150 mg/kg) and −1 day (100 mg/kg) prior to inoculation. Bloodstream infection was established by injecting intravenously 50 μL of early log-phase bacterial suspension (10^8-10^9 CFU/mL). The exact injection volume for each bacterial suspension was calculated based upon the OD value of the bacterial suspension and the desired inoculum for each isolate.
Solutions for administration of colistin, polymyxin B or the compounds were prepared at a concentration of 1 mg (free base) per mL in sterile 0.9% saline. At 2 h after inoculation, a mouse in the treatment groups was injected intravenously with one of the above solutions at 4 μL/g body weight (BW) (i.e. free base 4 mg/kg BW), while the same volume of saline was injected into the control mice. At 0 h or at 4 h after the administration of antibacterial drug or saline (control), animals were euthanised by inhalation of overdose isoflurane. The skin on the chest and fore-paws of each animal was thoroughly cleansed with 70% ethanol and Betadine®. The blood was collected via cardiac puncture using a 1-mL syringe rinsed with heparin (5,000 IU/mL), diluted serially in sterile 0.9% saline and plated on nutrient agar plates using a spiral plater.
The agar plates were incubated at 37° C. overnight. The bacterial colonies on the plate were counted and CFU/mL of the blood was calculated. The log10 CFU/mL of blood in each mouse was calculated. The in vivo activity of the compounds against the bacteria was calculated as the difference of the log10 CFU/mL values between the treated mice and the control mice at 4 h (Δ log=log10 (treated)CFU/mL−log10 (control)CFU/mL).
Any compound showing a decrease in bacterial loading (Δ log) of ≥2 at 4 h is considered to have good in vivo efficacy in this initial screening model.

[1] = Pseudomonas aeruginosa ATCC 27853, broth microdilution in CAMHB
[2] = Pseudomonas aeruginosa FADDI-PA022, broth microdilution in CAMHB
[3] = Pseudomonas aeruginosa FADDI-PA025, broth microdilution in CAMHB
[4] = Enterobacter cloacae FADDI-EC001, broth microdilution in CAMHB
[5] = Enterobacter cloacae FADDI-EC003, broth microdilution in CAMHB
[6] = Enterobacter cloacae FADDI-EC006, broth microdilution in CAMHB
[7] = Acinetobacter baumannii ATCC 17978, broth microdilution in CAMHB
[8] = Acinetobacter baumannii ATCC 19606, broth microdilution in CAMHB
[9] = Acinetobacter baumannii FADDI-AB034, broth microdilution in CAMHB

Row | SMILES | MIC (Pseudomonas aeruginosa) [µg/mL] | Minimum inhibitory concentration, Pa ATCC 27853 (Pseudomonas aeruginosa) [µg/mL] | Minimum inhibitory concentration, Pa FADDI-PA022 (Pseudomonas aeruginosa) [µg/mL] | Minimum inhibitory concentration, Pa FADDI-PA025 (Pseudomonas aeruginosa) [µg/mL] | Minimum inhibitory concentration, Ec FADDI-EC001 (Enterobacter cloacae) [µg/mL] | Minimum inhibitory concentration, Ec FADDI-EC003 (Enterobacter cloacae) [µg/mL] | Minimum inhibitory concentration, Ec FADDI-EC006 (Enterobacter cloacae) [µg/mL] | Δ log (Treated-Control at 4 h) (P. aeruginosa ATCC 27853) [log10 CFU/mL] | MIC (Pseudomonas aeruginosa; P. aeruginosa ATCC 27853) [µg/mL] | Minimum inhibitory concentration, Pa ATCC 27853 (Pseudomonas aeruginosa; [1]) [µg/mL] | Minimum inhibitory concentration, Pa FADDI-PA022 (Pseudomonas aeruginosa; [2]) [µg/mL] | Minimum inhibitory concentration, Pa FADDI-PA025 (Pseudomonas aeruginosa; [3]) [µg/mL] | Minimum inhibitory concentration, Ec FADDI-EC001 (Enterobacter cloacae; [4]) [µg/mL] | Minimum inhibitory concentration, Ec FADDI-EC003 (Enterobacter cloacae; [5]) [µg/mL] | Minimum inhibitory concentration, Ec FADDI-EC006 (Enterobacter cloacae; [6]) [µg/mL] | MIC (Acinetobacter baumannii; A. baumannii ATCC 19606) [µg/mL] | Minimum inhibitory concentration, Ab A ATCC 17978 (Acinetobacter baumannii; [7]) [µg/mL] | Minimum inhibitory concentration, Ab ATCC 19606 (Acinetobacter baumannii; [8]) [µg/mL] | Minimum inhibitory concentration, Ab FADDI-AB034 (Acinetobacter baumannii; [9]) [µg/mL] | MIC (Klebsiella pneumoniae; K. pneumoniae FADDI-KP032) [µg/mL] | also measured
1 | CC[C@@H]1NC(=O)[C@@H](CC(C)C)NC(=O)[C@H](CCN)NC(=O)[C@@H](NC(=O)[C@H](CN)NC(=O)[C@@H](NC(=O)[C@H](CCN)NC(=O)c2ccc(Cl)c(F)c2)[C@@H](C)O)CCNC(=O)[C@H]([C@@H](C)O)NC(=O)[C@H](CCN)NC(=O)[C@H](CCN)NC1=O [Compound 107] (X15-[Dab]T[Dap][Dab][Dab][dL][Abu][Dab][Dab]T; lactam 4-C) | 0.5 (≈ 0.437 µM) | 0.5 (≈ 0.437 µM) | 0.5 (≈ 0.437 µM) | 2 (≈ 1.75 µM) | 0.25 (≈ 0.219 µM) | 0.25 (≈ 0.219 µM) | 0.25 (≈ 0.219 µM) | −2.98 |  |  |  |  |  |  |  |  |  |  |  |  | MIC (Acinetobacter baumannii): 2 µg/mL (≈ 1.75 µM); Minimum inhibitory concentration, Ab A ATCC 17978 (Acinetobacter baumannii): 0.5 µg/mL (≈ 0.437 µM); Minimum inhibitory concentration, Ab ATCC 19606 (Acinetobacter baumannii): 2 µg/mL (≈ 1.75 µM); Minimum inhibitory concentration, Ab FADDI-AB034 (Acinetobacter baumannii): 0.25 µg/mL (≈ 0.219 µM); MIC (Klebsiella pneumoniae): 0.25 µg/mL (≈ 0.219 µM)
2 | CC[C@@H]1NC(=O)[C@@H](CC(C)C)NC(=O)[C@H](CCN)NC(=O)[C@@H](NC(=O)[C@H](CN)NC(=O)[C@@H](NC(=O)[C@H](CCN)NC(=O)c2cc(C)cc(C(F)(F)F)c2)[C@@H](C)O)CCNC(=O)[C@H]([C@@H](C)O)NC(=O)[C@H](CCN)NC(=O)[C@H](CCN)NC1=O [Compound 120] (X17-[Dab]T[Dap][Dab][Dab][dL][Abu][Dab][Dab]T; lactam 4-C) | 1 (≈ 0.852 µM) | 1 (≈ 0.852 µM) | 1 (≈ 0.852 µM) | 2 (≈ 1.7 µM) | 0.25 (≈ 0.213 µM) | 0.25 (≈ 0.213 µM) | 0.25 (≈ 0.213 µM) | −3.20 |  |  |  |  |  |  |  |  |  |  |  |  | MIC (Acinetobacter baumannii): 1 µg/mL (≈ 0.852 µM); Minimum inhibitory concentration, Ab A ATCC 17978 (Acinetobacter baumannii): 0.5 µg/mL (≈ 0.426 µM); Minimum inhibitory concentration, Ab ATCC 19606 (Acinetobacter baumannii): 1 µg/mL (≈ 0.852 µM); Minimum inhibitory concentration, Ab FADDI-AB034 (Acinetobacter baumannii): 0.5 µg/mL (≈ 0.426 µM); MIC (Klebsiella pneumoniae): 0.5 µg/mL (≈ 0.426 µM)
3 | CC(C)C[C@H]1NC(=O)[C@H](CCN)NC(=O)[C@@H](NC(=O)[C@H](CN)NC(=O)[C@@H](NC(=O)[C@H](CCN)NC(=O)c2cc(Cl)cc(Cl)c2)[C@@H](C)O)CCNC(=O)[C@H]([C@@H](C)O)NC(=O)[C@H](CCN)NC(=O)[C@H](CCN)NC(=O)[C@H](C)NC1=O [Compound 117] ({Benzoyl(3,5-Cl2)}-[Dab]T[Dap][Dab][Dab][dL]A[Dab][Dab]T; lactam 4-C) |  |  |  |  |  |  |  | −2.99 | 0.25 (≈ 0.218 µM) | 0.25 (≈ 0.218 µM) | 2 (≈ 1.74 µM) | 2 (≈ 1.74 µM) | 0.25 (≈ 0.218 µM) | 0.25 (≈ 0.218 µM) | 1 (≈ 0.872 µM) | 1 (≈ 0.872 µM) | 0.25 (≈ 0.218 µM) | 1 (≈ 0.872 µM) | 1 (≈ 0.872 µM) | 0.25 (≈ 0.218 µM) | 
4 | CC(C)C[C@H]1NC(=O)[C@H](CCN)NC(=O)[C@@H](NC(=O)[C@H](CN)NC(=O)[C@@H](NC(=O)[C@H](CCN)NC(=O)c2cc(Cl)cc(Cl)c2)[C@@H](C)O)CCNC(=O)[C@H]([C@@H](C)O)NC(=O)[C@H](CCN)NC(=O)[C@H](CCN)NC(=O)[C@H]([C@@H](C)O)NC1=O [Compound 118] ({Benzoyl(3,5-Cl2)}-[Dab]T[Dap][Dab][Dab][dL]T[Dab][Dab]T; lactam 4-C) |  |  |  |  |  |  |  | −3.53 | 0.5 (≈ 0.425 µM) | 0.5 (≈ 0.425 µM) | 2 (≈ 1.7 µM) | 2 (≈ 1.7 µM) | 1 (≈ 0.85 µM) | 0.25 (≈ 0.213 µM) | 0.5 (≈ 0.425 µM) | 2 (≈ 1.7 µM) | >32 | 2 (≈ 1.7 µM) | 1 (≈ 0.85 µM) | 0.25 (≈ 0.213 µM) | 
5 | CC(C)C[C@H]1NC(=O)[C@H](CCN)NC(=O)[C@@H](NC(=O)[C@H](CN)NC(=O)[C@@H](NC(=O)[C@H](CCN)NC(=O)Cc2cccc(Cl)c2)[C@@H](C)O)CCNC(=O)[C@H]([C@@H](C)O)NC(=O)[C@H](CCN)NC(=O)[C@H](CCN)NC(=O)[C@H]([C@@H](C)O)NC1=O [Compound 61] ({Phenylacetyl(3-Cl)}-[Dab]T[Dap][Dab][Dab][dL]T[Dab][Dab]T; lactam 4-C) |  |  |  |  |  |  |  | −4.75 | 0.5 (≈ 0.433 µM) | 0.5 (≈ 0.433 µM) | 0.5 (≈ 0.433 µM) | >32 | 0.25 (≈ 0.216 µM) | 0.25 (≈ 0.216 µM) | 0.25 (≈ 0.216 µM) | 4 (≈ 3.46 µM) | 2 (≈ 1.73 µM) | 4 (≈ 3.46 µM) | 1 (≈ 0.865 µM) | 0.25 (≈ 0.216 µM) | 
6 | CC(C)C[C@H]1NC(=O)[C@H](CCN)NC(=O)[C@@H](NC(=O)[C@H](CCN)NC(=O)[C@@H](NC(=O)[C@H](CCN)NC(=O)Cc2ccccc2)[C@@H](C)O)CCNC(=O)[C@H]([C@@H](C)O)NC(=O)[C@H](CCN)NC(=O)[C@H](CCN)NC(=O)[C@H]([C@@H](C)O)NC1=O [Compound 30] (PhAc-[Dab]T[Dab][Dab][Dab][dL]T[Dab][Dab]T; lactam 4-C) |  |  |  |  |  |  |  | −0.39 | 1 (≈ 0.881 µM) | 1 (≈ 0.881 µM) | 1 (≈ 0.881 µM) | >32 | 2 (≈ 1.76 µM) | 2 (≈ 1.76 µM) | 4 (≈ 3.52 µM) | 32 (≈ 28.2 µM) | 32 (≈ 28.2 µM) | 32 (≈ 28.2 µM) | 32 (≈ 28.2 µM) | 1 (≈ 0.881 µM) | 
7 | CC[C@@H]1NC(=O)[C@@H](CC(C)C)NC(=O)[C@H](CCN)NC(=O)[C@@H](NC(=O)[C@H](CN)NC(=O)[C@@H](NC(=O)[C@H](CCN)NC(=O)Cc2ccc(Cl)cc2)[C@@H](C)O)CCNC(=O)[C@H]([C@@H](C)O)NC(=O)[C@H](CCN)NC(=O)[C@H](CCN)NC1=O [Compound 77] ({Phenylacetyl(4-Cl)}-[Dab]T[Dap][Dab][Dab][dL][Abu][Dab][Dab]T; lactam 4-C) | 0.25 (≈ 0.219 µM) | 0.25 (≈ 0.219 µM) | 0.5 (≈ 0.439 µM) | 4 (≈ 3.51 µM) | 0.5 (≈ 0.439 µM) | <0.125 | 0.25 (≈ 0.219 µM) | −2.28 |  |  |  |  |  |  |  |  |  |  |  |  | MIC (Acinetobacter baumannii): 4 µg/mL (≈ 3.51 µM); Minimum inhibitory concentration, Ab A ATCC 17978 (Acinetobacter baumannii): 0.5 µg/mL (≈ 0.439 µM); Minimum inhibitory concentration, Ab ATCC 19606 (Acinetobacter baumannii): 4 µg/mL (≈ 3.51 µM); Minimum inhibitory concentration, Ab FADDI-AB034 (Acinetobacter baumannii): 1 µg/mL (≈ 0.877 µM); MIC (Klebsiella pneumoniae): <0.125 µg/mL

— patent USRE48335E1, “Polymyxin derivatives as antimicrobial compounds” (priority 2014, dated 2020)
